The record followed here is patent US20260176320A1, “MODULATORS OF G-PROTEIN COUPLED RECEPTORS” (priority 2018, published 2026).

pEC50: −log10 of the molar value. Where two headings read alike, the source gives them in different places.

Holding throughout (format): cell-based
The target of assay [1] is T1, GLP-1R (Homo sapiens, UniProt P43220). The assay is described as follows: HitHunter cAMP assay (GLP-1R). To be noted: cAMP; for Emax: read-out: (Emax) GLP-1R. A digest of the protocol: (§1)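 cAMP accumulation read by luminescent HitHunter immunocompetition after 30 min room-temperature agonist stimulation. Agonists tested as 22-point twofold dilutions, in duplicate, on 10,000 cells/well in HBSS containing 625 μM IBMX, 10 mM HEPES and 0.2% BSA.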
T1 sequence (P43220 24-463): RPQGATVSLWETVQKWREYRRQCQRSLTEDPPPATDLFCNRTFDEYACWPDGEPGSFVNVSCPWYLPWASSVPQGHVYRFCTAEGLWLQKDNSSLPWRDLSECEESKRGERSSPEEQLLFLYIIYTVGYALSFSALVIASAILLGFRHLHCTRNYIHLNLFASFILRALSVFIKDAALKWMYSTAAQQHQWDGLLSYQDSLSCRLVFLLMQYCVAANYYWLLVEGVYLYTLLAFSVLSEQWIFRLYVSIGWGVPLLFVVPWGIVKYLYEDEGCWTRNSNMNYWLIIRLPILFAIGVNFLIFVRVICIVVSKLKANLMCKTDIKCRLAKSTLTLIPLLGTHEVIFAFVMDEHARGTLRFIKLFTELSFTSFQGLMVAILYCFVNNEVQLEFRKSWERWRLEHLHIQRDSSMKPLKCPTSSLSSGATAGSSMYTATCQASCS
Background: cAMP levels reflect the balance of adenylyl cyclase and phosphodiesterase activity.

For the next assay, the target named is T2, GIP-R (Homo sapiens, UniProt P48546).
T2 sequence (P48546 22-466): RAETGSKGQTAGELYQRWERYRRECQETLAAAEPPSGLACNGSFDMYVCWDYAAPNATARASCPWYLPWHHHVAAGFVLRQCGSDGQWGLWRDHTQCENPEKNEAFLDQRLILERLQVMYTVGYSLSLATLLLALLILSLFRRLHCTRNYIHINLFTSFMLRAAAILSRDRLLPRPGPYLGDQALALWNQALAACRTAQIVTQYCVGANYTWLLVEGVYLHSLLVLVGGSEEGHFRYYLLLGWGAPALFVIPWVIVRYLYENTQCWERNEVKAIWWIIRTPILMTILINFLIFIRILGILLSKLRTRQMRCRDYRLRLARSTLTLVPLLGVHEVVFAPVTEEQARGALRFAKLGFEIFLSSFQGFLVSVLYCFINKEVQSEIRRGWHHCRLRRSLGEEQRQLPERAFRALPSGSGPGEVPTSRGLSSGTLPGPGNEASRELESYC
The assay is described as follows: HitHunter cAMP assay (GIP-R). Particulars: cAMP; for Emax: read-out: (Emax) GIP-R. A digest of the protocol:
as §1

In assay [2] the target is T1, GLP-1R. Nature of the assay: PathHunter β-arrestin assay. The procedure, abridged: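 β-Arrestin recruitment measured by PathHunter enzyme-fragment luminescence, read after 3 h dark incubation at room temperature with detection solution. Beforehand, agonist in a 22-point 2-fold series was applied in duplicate for 90 min at 37 °C to 5,000 cells/well in BSA-containing (0.2%) medium.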

Where [3] appears, read: Table 3, read-out: EC50 GLP-1R/nM.
The mark [4] stands for this setting: Table 3A, read-out: EC50 GLP-1R/nM.
Where [5] appears, read: Table 3, read-out: EC50 GIP-R/nM.
[6] abbreviates: Table 3A, read-out: EC50 GIP-R/nM.
The mark [7] stands for this setting: PathHunter β-arrestin assay, read-out: β-arrestin activity EC50.

As a reminder, the Emax is the maximal effect, on the per cent scale that the assay sets. Broadly, the pEC50 is the negative decadic logarithm of the EC50, by convention in mol/L. As for `CC[C@H](C)[C@H](NC(=O)[C@H](CO)NC(=O)[C@H](Cc1ccc(O)cc1)NC(=O)[C@H](CC(=O)O)NC(=O)[C@H](CO)NC(=O)[C@@H](NC(=O)[C@H](Cc1ccccc1)NC(=O)[C@@H](NC(=O)CNC(=O)[C@H](CCC(=O)O)NC(=O)CSCC(=O)NCCn1ncc2ccccc2c1=O)[C@@H](C)O)[C@@H](C)O)C(=O)N[C@@H](Cc1ccc(O)cc1)C(=O)N[C@@H](CC(C)C)C(=O)N[C@@H](CC(=O)O)C(=O)N[C@@H](CCCCN)C(=O)N[C@@H](CCC(N)=O)C(=O)N[C@@H](C)C(=O)N[C@@H](C)C(=O)NC(C)(C)C(=O)N[C@@H](CCC(=O)O)C(=O)N[C@@H](Cc1ccccc1)C(=O)N[C@H](C(=O)N[C@@H](CC(N)=O)C(=O)N[C@@H](Cc1c[nH]c2ccccc12)C(=O)N[C@@H](CC(C)C)C(=O)N[C@@H](CC(C)C)C(=O)N[C@@H](C)C(=O)NCC(=O)NCC(=O)N1CCC[C@H]1C(=O)N[C@@H](CO)C(=O)N[C@@H](CO)C(=O)NCC(=O)N[C@@H](C)C(=O)N1CCC[C@H]1C(=O)N1CCC[C@H]1C(=O)N1CCC[C@H]1C(=O)N[C@@H](CO)C(=O)N[C@@H](CCCCN)C(N)=O)C(C)C` [Compound 136], the EC50 on GLP-1R [1] (EC50 GLP-1R/nM, Table 3) fell in the range of 10 to 100 nM; on GLP-1R [1] (EC50 GLP-1R/nM, Table 3A), 10 to 100 nM; at GIP-R (EC50 GIP-R/nM, Table 3), 0.1 to 1 nM; at GIP-R (EC50 GIP-R/nM, Table 3A), 0.1 to 1 nM. Further, the maximal effect (Emax) was 91 to 94% on GLP-1R [1] (Table 3), 91 to 94% at GLP-1R [1] (Table 3A), 105% at GIP-R (Table 3) and 105% at GIP-R (Table 3A). The compound also had a pEC50 at GLP-1R [2] below 6.00.
In the case of `CCCCCCCCCCCCCCCC(=O)N[C@@H](CCC(=O)NCCCC[C@H](NC(=O)[C@H](CO)NC(=O)[C@@H]1CCCN1C(=O)[C@@H]1CCCN1C(=O)[C@@H]1CCCN1C(=O)[C@H](C)NC(=O)CNC(=O)[C@H](CO)NC(=O)[C@H](CO)NC(=O)[C@@H]1CCCN1C(=O)CNC(=O)CNC(=O)[C@H](C)NC(=O)[C@H](CC(C)C)NC(=O)[C@H](CC(C)C)NC(=O)[C@H](Cc1c[nH]c2ccccc12)NC(=O)[C@H](CC(N)=O)NC(=O)[C@@H](NC(=O)[C@H](Cc1ccccc1)NC(=O)[C@H](CCC(=O)O)NC(=O)C(C)(C)NC(=O)[C@H](C)NC(=O)[C@H](C)NC(=O)[C@H](CCC(N)=O)NC(=O)[C@H](CCCCN)NC(=O)[C@H](CC(=O)O)NC(=O)[C@H](CC(C)C)NC(=O)[C@H](Cc1ccc(O)cc1)NC(=O)[C@@H](NC(=O)[C@H](CO)NC(=O)[C@H](Cc1ccc(O)cc1)NC(=O)[C@H](CC(=O)O)NC(=O)[C@H](CO)NC(=O)[C@@H](NC(=O)[C@H](Cc1ccccc1)NC(=O)[C@@H](NC(=O)CNC(=O)[C@H](CCC(=O)O)NC(=O)CSCC(=O)NCCN1CC(=O)N(C)CC1=O)[C@@H](C)O)[C@@H](C)O)[C@@H](C)CC)C(C)C)C(N)=O)C(=O)O` [Compound 12], the Emax was 91% on GLP-1R [1] (Table 3), 91% at GLP-1R [1] (Table 3A), 85% at GIP-R (Table 3) and 85% at GIP-R (Table 3A). In addition, the EC50 is 1 to 10 nM at GLP-1R [1] (setting [3]), 1 to 10 nM at GLP-1R [1] (setting [4]), 0.1 to 1 nM at GIP-R (setting [5]) and 0.1 to 1 nM on GIP-R (setting [6]). Further, on GLP-1R [2] (setting [7]), the negative-log EC50 (pEC50) was below 6.00.
As for `CC[C@H](C)[C@H](NC(=O)[C@H](CO)NC(=O)[C@H](Cc1ccc(O)cc1)NC(=O)[C@H](CC(=O)O)NC(=O)[C@H](CO)NC(=O)[C@@H](NC(=O)[C@H](Cc1ccccc1)NC(=O)[C@@H](NC(=O)CNC(=O)[C@H](CCC(=O)O)NC(=O)C12CC(C(=O)NCCN3C(=O)CSC3=O)(C1)C2)[C@@H](C)O)[C@@H](C)O)C(=O)N[C@@H](Cc1ccc(O)cc1)C(=O)N[C@@H](CC(C)C)C(=O)N[C@@H](CC(=O)O)C(=O)N[C@@H](CCCCN)C(=O)N[C@@H](CCC(N)=O)C(=O)N[C@@H](C)C(=O)N[C@@H](C)C(=O)NC(C)(C)C(=O)N[C@@H](CCC(=O)O)C(=O)N[C@@H](Cc1ccccc1)C(=O)N[C@H](C(=O)N[C@@H](CC(N)=O)C(=O)N[C@@H](Cc1c[nH]c2ccccc12)C(=O)N[C@@H](CC(C)C)C(=O)N[C@@H](CC(C)C)C(=O)N[C@@H](C)C(=O)NCC(=O)NCC(=O)N1CCC[C@H]1C(=O)N[C@@H](CO)C(=O)N[C@@H](CO)C(=O)NCC(=O)N[C@@H](C)C(=O)N1CCC[C@H]1C(=O)N1CCC[C@H]1C(=O)N1CCC[C@H]1C(=O)N[C@@H](CO)C(=O)N[C@@H](CCCCN)C(N)=O)C(C)C` [Compound 179], the EC50 at GLP-1R [1] (EC50 GLP-1R/nM, Table 3) was 0.1 to 1 nM; on GLP-1R [1] (EC50 GLP-1R/nM, Table 3A) it was 0.1 to 1 nM; on GIP-R (EC50 GIP-R/nM, Table 3), above 1000 nM; on GIP-R (read-out: EC50 GIP-R/nM, Table 3A), above 1000 nM. The Emax on GLP-1R [1] (Table 3) and at GLP-1R [1] (Table 3A) was 103% in each case. Further, at GIP-R (read-out: (Emax) GIP-R at 1 μM, Table 3, at 1 μM), the maximal response (Emax) at 1 µM worked out at 2%. On GLP-1R [2], the pEC50 is 6.00 to 8.00.
Consider `CCCCCCCCCCCCCCCC(=O)N[C@@H](CCC(=O)NCCCC[C@H](NC(=O)[C@H](CO)NC(=O)[C@@H]1CCCN1C(=O)[C@@H]1CCCN1C(=O)[C@@H]1CCCN1C(=O)[C@H](C)NC(=O)CNC(=O)[C@H](CO)NC(=O)[C@H](CO)NC(=O)[C@@H]1CCCN1C(=O)CNC(=O)CNC(=O)[C@H](C)NC(=O)[C@H](CC(C)C)NC(=O)[C@H](CC(C)C)NC(=O)[C@H](Cc1c[nH]c2ccccc12)NC(=O)[C@H](CC(N)=O)NC(=O)[C@@H](NC(=O)[C@H](Cc1ccccc1)NC(=O)[C@H](CCC(=O)O)NC(=O)C(C)(C)NC(=O)[C@H](C)NC(=O)[C@H](C)NC(=O)[C@H](CCC(N)=O)NC(=O)[C@H](CCCCN)NC(=O)[C@H](CC(=O)O)NC(=O)[C@H](CC(C)C)NC(=O)[C@H](Cc1ccc(O)cc1)NC(=O)[C@@H](NC(=O)[C@H](CO)NC(=O)[C@H](Cc1ccc(O)cc1)NC(=O)[C@H](CC(=O)O)NC(=O)[C@H](CO)NC(=O)[C@@H](NC(=O)[C@H](Cc1ccccc1)NC(=O)[C@@H](NC(=O)CNC(=O)[C@H](CCC(=O)O)NC(=O)CSCC(=O)NCCN1CCSCC1=O)[C@@H](C)O)[C@@H](C)O)[C@@H](C)CC)C(C)C)C(N)=O)C(=O)O` [Compound 36], for which the Emax on GLP-1R [1] (Table 3) was 108%; at GLP-1R [1] (Table 3A) it was 108%; on GIP-R (Table 3) it was 51 to 75%; at GIP-R (Table 3A) it was 51 to 75%. Further, the EC50 on GLP-1R [1] (setting [3]) was below 1 nM; on GLP-1R [1] (setting [4]), below 1 nM; on GIP-R (setting [5]) it was 0.1 to 10 nM; at GIP-R (setting [6]) it was 0.1 to 10 nM. Besides, the pEC50 at GLP-1R [2] (setting [7]) was below 6.00.
For the compound `CCCCCCCCCCCCCCCC(=O)N[C@@H](CCC(=O)NCCCC[C@H](NC(=O)[C@H](CO)NC(=O)[C@@H]1CCCN1C(=O)[C@@H]1CCCN1C(=O)[C@@H]1CCCN1C(=O)[C@H](C)NC(=O)CNC(=O)[C@H](CO)NC(=O)[C@H](CO)NC(=O)[C@@H]1CCCN1C(=O)CNC(=O)CNC(=O)[C@H](C)NC(=O)[C@H](CC(C)C)NC(=O)[C@H](CC(C)C)NC(=O)[C@H](Cc1c[nH]c2ccccc12)NC(=O)[C@H](CC(N)=O)NC(=O)[C@@H](NC(=O)[C@H](Cc1ccccc1)NC(=O)[C@H](CCC(=O)O)NC(=O)C(C)(C)NC(=O)[C@H](C)NC(=O)[C@H](C)NC(=O)[C@H](CCC(N)=O)NC(=O)[C@H](CCCCN)NC(=O)[C@H](CC(=O)O)NC(=O)[C@H](CC(C)C)NC(=O)[C@H](Cc1ccc(O)cc1)NC(=O)[C@@H](NC(=O)[C@H](CO)NC(=O)[C@H](Cc1ccc(O)cc1)NC(=O)[C@H](CC(=O)O)NC(=O)[C@H](CO)NC(=O)[C@@H](NC(=O)[C@H](Cc1ccccc1)NC(=O)[C@@H](NC(=O)CNC(=O)[C@H](CCC(=O)O)NC(=O)CSCC(=O)NCCN1C(=O)CC[C@@H](C)C1=O)[C@@H](C)O)[C@@H](C)O)[C@@H](C)CC)C(C)C)C(N)=O)C(=O)O` [Compound 85], the EC50 at GLP-1R [1] (EC50 GLP-1R/nM, Table 3) lay in the range of 1 to 10 nM; at GLP-1R [1] (EC50 GLP-1R/nM, Table 3A), 1 to 10 nM; on GIP-R (EC50 GIP-R/nM, Table 3), 0.1 to 1 nM; on GIP-R (EC50 GIP-R/nM, Table 3A), 0.1 to 1 nM. For the same compound, the maximal response (Emax) on GLP-1R [1] (Table 3) amounted to 103%; on GLP-1R [1] (Table 3A), 103%; at GIP-R (Table 3) it was 83%; on GIP-R (Table 3A) it was 83%. Moreover, the pEC50 at GLP-1R [2] is below 6.00.
